{
  "source": "patent US20050164994A1",
  "about": "“Treatment of genitourinary tract disorders” (Control Deliver Systems, Inc., priority 2001, published 2005)",
  "assay": "Canine study: codrug remaining in 5 mg pellets implanted in the prostate",
  "type": "in vivo",
  "details": "dog prostate, 5 mg implant",
  "protocol": "A canine study was performed using a codrug of 5-FU and fluocinolone acetonide (Fa) to evaluate the release rate of the codrug in prostate tissue. The results of that study are detailed in FIGS. 1-3. Two 5 mg pellets of the codrug were implanted in the prostate, and the animals were humanely sacrificed on postoperative days, as indicated. The prostates were removed and levels of the codrug in the pellets determined.",
  "note": "Values joined by “and” are separate entries in the source; they are usually repeats but may differ in a detail not shown here. Equal entries are not always repeated.",
  "data": [
    {"smiles": "CC1(C)O[C@@H]2CC3C4C[C@H](F)C5=CC(=O)C=C[C@]5(C)[C@@]4(F)[C@@H](O)C[C@]3(C)[C@]2(C(=O)COC(=O)CC(=O)n2c(=O)[nH]cc(F)c2=O)O1", "note": "(some centres unmarked) [5-FU + FA]", "values": [
      {"measurement": "Codrug Remaining (single pellet)", "setting": "sacrificed at 28 days", "value": "4.27 mg and 4.24 mg and 4.04 mg and 3.50 mg and 4.14 mg and 4.18 mg and 4.12 mg and 4.23 mg"},
      {"measurement": "Codrug Remaining (single pellet)", "setting": "sacrificed at 42 days", "value": "3.50 mg and 3.33 mg and 3.89 mg and 4.12 mg"}
    ]}
  ]
}
